System: DFP-induced status epilepticus
Settings: rat, in vivo

SMILES: Cc1ncc2n1-c1ccc(Cl)cc1C(c1ccccc1F)=NC2 [Midazolam, midazolam]
- effect on behavioral seizure scores induced by DFP: in-effective in reducing the behavioral seizure scores
- mortality: no mortality

SMILES: CCCC(CCC)C(=O)[O-].[Na+] [sodium valproate]
- termination of status epilepticus / EEG epileptiform activity: intermittent spikes and seizure activity during the whole 5 h of EEG recording

Source: patent US20200030304A1 (priority 2017, published 2020)
